According to publication PMC13070491, “Single-nucleus transcriptomics, pharmacokinetics, and pharmacodynamics of CDK4/6 and mTOR inhibition in a Phase 0/1 trial of recurrent high-grade glioma” (Neuro-Oncology, 2025):
“And” between values parts separate entries of the source, which are not always exact repeats. Identical values can stand only once.

Key:
[1] = Adverse events related to study treatment (CTCAE); format: in vivo, human; details: Dose Level 0: ribociclib 400mg + everolimus 2.5mg QD 5 days; CTCAE grade 1
Procedure: Eligibility was determined based on previous clinical records, panel DNA sequencing, and IHC of archival tissue from a previous surgery (Figure 1, Supplementary Figure S2A).

[2] = Plasma pharmacokinetic parameters (LC-MS/MS); details: for AUC(0-t): AUClast; for AUC(0-t) / Cmax / Tmax / AUClast / CL/F / T1/2: total everolimus plasma; for half-life: T1/2, total everolimus plasma
Procedure: Pharmacokinetic evaluation was conducted as previously described[8] using a validated liquid chromatography with tandem mass spectrometry (LC-MS/MS) method.[16] […] CSF samples were intraoperatively collected.

[3] = human, plasma, oral, 2.5 mg, mean
[4] = human, plasma, oral, 2.5 mg, median
[5] = human, plasma, oral, 5 mg, mean
[6] = human, plasma, oral, 5 mg, median
[7] = human, plasma, oral, 10 mg, mean
[8] = human, plasma, oral, 10 mg, median
[9] = human, plasma, oral, 50 mg, mean
[10] = human, plasma, oral, 50 mg, median
[11] = human, plasma, oral, 60 mg, mean
[12] = human, plasma, oral, 60 mg, median
[13] = human, plasma, oral, 70 mg, individual patients
[14] = human, plasma, oral, 70 mg, mean
[15] = human, plasma, oral, 70 mg, median
[16] = dose 2.5 mg, individual patients
[17] = dose 10 mg, individual patients
[18] = dose 50 mg, individual patients, listed as everolimus
[19] = dose 60 mg, individual patients
[20] = dose 70 mg, individual patients

In the case of `CO[C@H]1C[C@@H]2CC[C@@H](C)[C@@](O)(O2)C(=O)C(=O)N2CCCC[C@H]2C(=O)O[C@H]([C@H](C)C[C@@H]2CC[C@@H](OCCO)[C@H](OC)C2)CC(=O)[C@H](C)/C=C(\C)[C@@H](O)[C@@H](OC)C(=O)[C@H](C)C[C@H](C)/C=C/C=C/C=C/1C` [Everolimus, everolimus], the “Stomatitis, No. Patients Affected” value [1] is reported as 1, the AUC(0-t) [2, 3] is reported as 0.31 µM·h and the AUC(0-t) [2, 4] is reported as 0.23 µM·h. The Cmax ([2]; human, plasma, oral, 2.5 mg, Cmax, mean) was 33.7 nM, the half-life [2, 3] was 21.6 h and the half-life [2, 4] was 17.2 h. The Tmax ([2]; human, plasma, oral, 2.5 mg, Tmax, mean) was 1.86 h, the AUC(0-t) ([2]; human, plasma, oral, 5 mg, individual patients) was 0.55 µM·h and the AUC(0-t) [2, 5] was 0.43 µM·h. The AUC(0-t) [2, 6] was 0.5 µM·h, the Cmax ([2]; human, plasma, oral, 5 mg, Cmax, mean) was 34.1 nM and the half-life [2, 5] was 19.9 h. For the same compound, the half-life [2, 6] was 18.8 h, the Tmax ([2]; human, plasma, oral, 5 mg, Tmax, mean) was 2.69 h and the Tmax ([2]; human, plasma, oral, 5 mg, Tmax, median) was 2.03 h. It also gave an AUC(0-t) [2, 7] of 0.9 µM·h, an AUC(0-t) [2, 8] of 0.82 µM·h and a Cmax ([2]; human, plasma, oral, 10 mg, Cmax, individual patients) of 80 nM. It also gave a half-life ([2]; human, plasma, oral, 10 mg, individual patients) of 22.1 h, a half-life [2, 7] of 21.8 h and a half-life [2, 8] of 21.8 h. For the same compound, the Tmax ([2]; human, plasma, oral, 10 mg, Tmax, mean) was 3.23 h, the Tmax ([2]; human, plasma, oral, 10 mg, Tmax, median) was 3.92 h and the AUC(0-t) ([2]; human, plasma, oral, 50 mg, individual patients) was 1.35 µM·h. For the same compound, the AUC(0-t) [2, 9] was 1.59 µM·h, the AUC(0-t) [2, 10] was 1.61 µM·h and the Cmax ([2]; human, plasma, oral, 50 mg, Cmax, individual patients) was 110 nM. It also gave a Cmax ([2]; human, plasma, oral, 50 mg, Cmax, mean) of 140 nM, a Cmax ([2]; human, plasma, oral, 50 mg, Cmax, median) of 130 nM and a half-life [2, 9] of 29.3 h. The half-life [2, 10] was 21.3 h, the Tmax ([2]; human, plasma, oral, 50 mg, Tmax, mean) was 1.31 h and the Tmax ([2]; human, plasma, oral, 50 mg, Tmax, median) was 1.12 h. It also gave an AUC(0-t) ([2]; human, plasma, oral, 60 mg, individual patients) of 1.93 µM·h, an AUC(0-t) [2, 11] of 1.88 µM·h and an AUC(0-t) [2, 12] of 1.88 µM·h. For the same compound, the Cmax ([2]; human, plasma, oral, 60 mg, Cmax, individual patients) was 190 nM, the Cmax ([2]; human, plasma, oral, 60 mg, Cmax, mean) was 190 nM and the Cmax ([2]; human, plasma, oral, 60 mg, Cmax, median) was 190 nM. It also gave a half-life [2, 11] of 19.7 h, a half-life [2, 12] of 19.7 h and an AUC(0-t) [2, 13] of 1.24 µM·h. For the same compound, the AUC(0-t) [2, 14] was 1.29 µM·h, the AUC(0-t) [2, 15] was 1.27 µM·h and the Cmax ([2]; human, plasma, oral, 70 mg, Cmax, individual patients) was 120 nM. It also gave a Cmax ([2]; human, plasma, oral, 70 mg, Cmax, mean) of 120 nM, a Cmax ([2]; human, plasma, oral, 70 mg, Cmax, median) of 120 nM and a half-life [2, 13] of 18.7 h. It also gave a half-life [2, 14] of 19.4 h, a half-life [2, 15] of 19.4 h and a Tmax ([2]; human, plasma, oral, 70 mg, Tmax, mean) of 4.25 h. For the same compound, the Tmax ([2]; human, plasma, oral, 70 mg, Tmax, median) was 1.93 h, the AUClast [2, 16] was 0.41 µM·h and 0.68 µM·h and 0.46 µM·h and 0.32 µM·h and 0.19 µM·h and 0.16 µM·h and 0.14 µM·h and the CL/F [2, 16] was 6.33 L/h and 3.85 L/h and 5.73 L/h and 8.25 L/h and 11.50 L/h and 13.68 L/h and 16.29 L/h and 18.14 L/h and 15.94 L/h. The Tmax [2, 16] was 0.93 h and 1.00 h and 1.88 h and 2.05 h and 1.05 h and 3.97 h and 1.92 h and 1.95 h and 2.02 h, the CL/F ([2]; dose 2.5 mg, mean) was 11.08 L/h and the CL/F ([2]; dose 2.5 mg, median) was 11.50 L/h. It also gave a Cmax ([2]; dose 2.5 mg, median) of 30 nM, a Tmax ([2]; dose 2.5 mg, median) of 1.92 h and an AUClast ([2]; dose 5 mg, individual patients) of 0.22 µM·h. For the same compound, the CL/F ([2]; dose 5 mg, individual patients) was 9.45 L/h and 23.36 L/h and 10.39 L/h, the Cmax ([2]; dose 5 mg, individual patients) was 45.2 nM and 21.1 nM and the T1/2 ([2]; dose 5 mg, individual patients) was 28.35 h and 18.84 h and 12.56 h. The Tmax ([2]; dose 5 mg, individual patients) was 1.95 h and 4.10 h, the CL/F ([2]; dose 5 mg, mean) was 14.40 L/h and the CL/F ([2]; dose 5 mg, median) was 10.39 L/h. The Cmax ([2]; dose 5 mg, median) was 36.2 nM, the AUClast [2, 17] was 0.49 µM·h and 0.63 µM·h and 1.02 µM·h and 1.48 µM·h and the CL/F [2, 17] was 21.35 L/h and 16.51 L/h and 10.28 L/h and 7.07 L/h. For the same compound, the Cmax [2, 17] was 120 nM, the T1/2 [2, 17] was 21.52 h and the Tmax [2, 17] was 4.03 h and 1.05 h and 3.83 h and 4.00 h. It also gave a CL/F ([2]; dose 10 mg, mean) of 13.80 L/h, a Cmax ([2]; dose 10 mg, mean) of 90 nM and a CL/F ([2]; dose 10 mg, median) of 13.40 L/h. For the same compound, the Cmax ([2]; dose 10 mg, median) was 84.6 nM, the Cmax ([2]; dose 50 mg, individual patients) was 130 nM and the AUClast [2, 18] was 1.87 µM·h and 1.42 µM·h and 1.72 µM·h. For the same compound, the CL/F [2, 18] was 21.38 L/h and 14.80 L/h and 15.39 L/h and 21.73 L/h and 8.55 L/h, the Cmax [2, 18] was 130 nM and 160 nM and 170 nM and the Tmax [2, 18] was 1.87 h and 1.78 h and 0.83 h and 0.95 h. The CL/F ([2]; dose 50 mg, mean) was 16.37 L/h, the CL/F ([2]; dose 50 mg, median) was 15.39 L/h and the AUClast [2, 19] was 1.83 µM·h. The CL/F [2, 19] was 23.69 L/h and 16.85 L/h, the T1/2 [2, 19] was 12.25 h and 27.10 h and the Tmax [2, 19] was 1.00 h. The CL/F ([2]; dose 60 mg, mean) was 20.27 L/h, the Tmax ([2]; dose 60 mg, mean) was 1.00 h and the CL/F ([2]; dose 60 mg, median) was 20.27 L/h. For the same compound, the Tmax ([2]; dose 60 mg, median) was 1.00 h, the AUClast [2, 20] was 1.36 µM·h and the CL/F [2, 20] was 35.41 L/h and 33.84 L/h. The Cmax [2, 20] was 90 nM, the T1/2 [2, 20] was 20.18 h and the Tmax [2, 20] was 9.75 h and 1.07 h. It also gave a CL/F ([2]; dose 70 mg, mean) of 34.62 L/h and a CL/F ([2]; dose 70 mg, median) of 34.62 L/h.
